From patent publication US8043815B2, “Methods for analysis of PDEF and survivin as interconnected cancer biomarkers and targets for personalized medicine” (Health Research, Inc., priority 2007, dated 2011)

Tests used:
Format in all cases: cell-based
[1] = tested on: HCT116 colon cancer cells with double knockout (DKO) of DNMT1 and DNMT3b; assay: Western blot of survivin and PDEF expression in HCT116 DNMT1/DNMT3b double knockout cells; details: treated for 3 days
Method: (§1) FIG. 7 provides a photographic representation of results obtained from differential modulation of survivin and PDEF expression in an HCT116 parental colon cancer cell line, versus in an HCT116 cell line in which both the DNMT1 and DNMT3b DNA methyltransferases have been knocked out. Both HCT116 parental and double knockout (DNMT1^−/−/DNMT3B^−/−) colon cancer cell lines were treated with and without the methylation inhibitor 5-Aza-dC for 3 days as shown. Cells were lysed and analyzed for the expression of survivin and PDEF by western blots. Actin is the internal control of protein loading.
(§2) Since it is know that the survivin gene is not methylated, despite our identification of a CpG island in the survivin gene, this Example further supports that demethylation of PDEF via a DNA methylation inhibitor can facilitate downregulation of survivin expression.

[2] = tested on: HCT116 parental colon cancer cells; assay: Western blot of survivin and PDEF expression in HCT116 parental colon cancer cells; details: treated for 3 days
Method: as §1, §2

[3] = tested on: PDEF-negative ovarian cancer cell lines; assay: Western blot of PDEF and survivin expression in PDEF-negative ovarian cancer cell lines treated with methylation inhibitor
Method: FIGS. 6A and 6B provide photographic representations of results obtained from Western blotting analysis of PDEF expression in PDEF-negative ovarian cancer cell lines treated with and without 5-aza-2-deoxycytidine (5-Aza-dC) for 5 days at 1 μM (FIG. 6A) or different concentrations of 5-Aza-dC (FIG. 6B).
We analyzed whether the loss of PDEF expression in cancer tissues during cancer progression is the result of epigenetic methylation of the PDEF gene. Four PDEF-negative ovarian cancer cell lines were treated with and without the methylation inhibitor 5-aza-2-deoxycytidine (5-Aza-dC) for 5 days at 1 μM (FIG. 6A) or different concentration of 5-Aza-dC (FIG. 6B). Cells were then lysed and analyzed for PDEF expression by Western blots.

[4] = tested on: MDA-MB-231 breast cancer cells; assay: Cell growth and cell death of MDA-MB-231 cells after sequential MSA / Zebularine treatment (digital images); details: images 48 hours after new medium replacement
Method: (§3) FIG. 8 provides a photographic representation of results showing a synergistic effect of DNA methylation inhibitors in combination with DNA methylation inducers/promoters on massive cancer cell death. Sequential treatment of MDA-MB-231 breast cancer cells with methylseleninic acid (MSA, a DNA methylation inducer/promoter) for 48 hours and Zebularine (a DNA methylation inhibitor) for 24 hours alone or in combination as shown. Growth medium with drugs was replaced with complete new medium without drugs 24 hour after Zebularine treatment. Images were then taken using a digital camera 48 hours after new medium replacement.
as §3, with “Sequential” for “FIG. 8 provides a photographic representation of results showing a synergistic effect of DNA methylation inhibitors in combination with DNA methylation inducers/promoters on massive cancer cell death. Sequential”

Q: Which results are given for Nc1ncn([C@H]2C[C@H](O)[C@@H](CO)O2)c(=O)n1 [5-Aza-dC, 5-aza-2-deoxycytidine]?
A: PDEF expression by western blots [1]: no effect; survivin expression by western blots [1]: no effect; PDEF expression by western blots [2]: induces PDEF expression; survivin expression by western blots [2]: decreases survivin expression; PDEF expression by western blots ([3]; four PDEF-negative ovarian cancer cell lines, 5 days at 1 μM or different concentration): two of the four ovarian cancer cell lines showed restored expression of PDEF; expression of survivin by Western blots ([3]; ovarian cancer cell lines with restored PDEF expression, different concentrations of 5-Aza-dC, 5 days (FIG. 6B)): reduces or eliminates the expression of survivin

Q: Which results are given for C[Se](=O)O [MSA, methylseleninic acid]?
A: cell growth inhibition ([4]; MSA 48 hours, Zebularine 24 hours, alone): only moderately inhibit cell growth; induction of cell death ([4]; alone or sequential combination (MSA then Zebularine)): without induction of cell death
